The target of data set [1] is Protein kinase C alpha type (Homo sapiens, UniProt P17252). In words: Inhibition of human PKCalpha active using MBP as substrate after 60 mins in presence of [gamma-32]ATP by scintillation counting.
The target of data set [2] is Rho-associated protein kinase 2 (Homo sapiens, UniProt O75116). In words: Inhibition of recombinant human N-terminal GST-tagged ROCK2 catalytic domain (1 to 553 residues) expressed in baculovirus expression system using STK 2-biotin as substrate measured after 60 mins by HTRF/TR-FRET assay. (In general: In TR-FRET formats the signal depends on donor and acceptor labels being close together.)

A further data set addresses CYP3A4 (Homo sapiens, UniProt P08684). In words: Inhibition of CYP3A4 (unknown origin) at 10 uM. It counts as ADME.
Data set [3] has as its target T1, Beta-adrenergic receptor kinase 1 (Homo sapiens, UniProt P25098).
T1 sequence (P25098 whole entry): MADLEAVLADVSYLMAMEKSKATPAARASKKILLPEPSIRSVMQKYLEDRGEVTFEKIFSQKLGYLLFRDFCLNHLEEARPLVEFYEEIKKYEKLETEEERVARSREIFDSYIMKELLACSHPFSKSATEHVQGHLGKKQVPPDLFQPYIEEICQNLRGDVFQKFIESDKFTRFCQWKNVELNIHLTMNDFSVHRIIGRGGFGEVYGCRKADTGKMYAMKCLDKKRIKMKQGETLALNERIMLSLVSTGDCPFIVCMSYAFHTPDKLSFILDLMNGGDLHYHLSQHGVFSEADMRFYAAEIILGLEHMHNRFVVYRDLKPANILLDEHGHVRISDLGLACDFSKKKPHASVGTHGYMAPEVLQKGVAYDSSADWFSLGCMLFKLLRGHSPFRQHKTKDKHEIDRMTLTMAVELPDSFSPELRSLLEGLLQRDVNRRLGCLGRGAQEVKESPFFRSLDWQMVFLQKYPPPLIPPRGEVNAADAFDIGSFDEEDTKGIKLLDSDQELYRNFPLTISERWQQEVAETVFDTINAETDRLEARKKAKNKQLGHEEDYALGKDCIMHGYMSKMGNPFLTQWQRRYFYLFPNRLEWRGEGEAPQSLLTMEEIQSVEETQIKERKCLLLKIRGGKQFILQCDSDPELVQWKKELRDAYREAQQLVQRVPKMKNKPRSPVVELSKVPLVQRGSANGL
In words: Inhibition of human GRK2 expressed in HEK-B2 cells assessed as isoproterenol-stimulated cAMP accumulation preincubation for 20 mins followed by isoproterenol stimulation measured after 20 mins by cAMP ALPHA-screen assay. It counts as cell-based. (In general: Cyclic AMP is a second messenger, typically raised through Gs and lowered through Gi signalling.)

Data set [4] deals with G protein-coupled receptor kinase 5 (Homo sapiens, UniProt P34947).
Description: Inhibition of recombinant human full length GST-tagged GRK5 expressed in baculovirus using ulight topo2alpha as substrate preincubated for 60 mins followed by substrate addition measured after 10 mins by Lance TR-FRET assay
The target of data set [5] is G protein-coupled receptor kinase 6 (Homo sapiens, UniProt P43250). In words: Inhibition of recombinant human full length GST-tagged GRK6 expressed in baculovirus using ulight topo2alpha as substrate preincubated for 60 mins followed by substrate addition measured after 10 mins by Lance TR-FRET assay.
For data set [6], the target named is T2, hERG (KCNH2) (Homo sapiens, UniProt Q12809). In words: Displacement of [3H]Astemizole from human ERG expressed in HEK293 cell membranes at 1 uM after 60 mins. As to conditions: membranes of HEK293 cells that express hERG, probe [3H]Astemizole. (In general: In a radioligand displacement assay an active substance lowers the binding of a labelled ligand.)
The target in data set [7] is T2, hERG (KCNH2). In words: Displacement of [3H]Astemizole from human ERG expressed in HEK293 cell membranes at 10 uM after 60 mins. As to conditions: membranes of HEK293 cells that express hERG, probe [3H]Astemizole.
Data set [8] can be described thus: Inhibition of recombinant human PKA expressed in Escherichia coli using LRRASLG as substrate preincubated for 15 mins followed by substrate addition measured after 15 mins in presence of [gamma-33P]-ATP by scintillation counting.
In data set [9] the target is T3, G protein-coupled receptor kinase 3 (Homo sapiens, UniProt P35626).
T3 sequence (P35626 whole entry): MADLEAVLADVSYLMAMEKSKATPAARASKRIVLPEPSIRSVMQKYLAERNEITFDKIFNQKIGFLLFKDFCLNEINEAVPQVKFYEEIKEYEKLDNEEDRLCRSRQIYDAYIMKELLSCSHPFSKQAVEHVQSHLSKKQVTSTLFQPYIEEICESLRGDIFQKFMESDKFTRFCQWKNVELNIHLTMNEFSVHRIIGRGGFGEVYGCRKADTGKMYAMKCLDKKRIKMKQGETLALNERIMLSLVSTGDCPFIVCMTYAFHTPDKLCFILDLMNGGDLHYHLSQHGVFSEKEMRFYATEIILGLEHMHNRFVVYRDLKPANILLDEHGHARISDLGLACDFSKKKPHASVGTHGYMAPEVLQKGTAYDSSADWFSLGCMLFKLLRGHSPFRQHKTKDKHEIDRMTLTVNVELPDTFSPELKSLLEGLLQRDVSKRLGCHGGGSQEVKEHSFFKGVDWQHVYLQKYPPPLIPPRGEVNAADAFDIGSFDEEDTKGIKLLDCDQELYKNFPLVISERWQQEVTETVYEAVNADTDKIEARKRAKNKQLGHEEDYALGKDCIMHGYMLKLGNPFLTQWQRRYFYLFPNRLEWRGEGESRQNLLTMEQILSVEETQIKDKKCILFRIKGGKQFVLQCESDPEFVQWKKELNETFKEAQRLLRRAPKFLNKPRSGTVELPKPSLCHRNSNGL
In words: Inhibition of recombinant human full length GST-tagged GRK3 expressed in baculovirus using ulight topo2alpha as substrate preincubated for 60 mins followed by substrate addition measured after 10 mins by Lance TR-FRET assay.

Another data set deals with T4, Rhodopsin kinase GRK1 (Homo sapiens, UniProt Q15835).
T4 sequence (Q15835 whole entry): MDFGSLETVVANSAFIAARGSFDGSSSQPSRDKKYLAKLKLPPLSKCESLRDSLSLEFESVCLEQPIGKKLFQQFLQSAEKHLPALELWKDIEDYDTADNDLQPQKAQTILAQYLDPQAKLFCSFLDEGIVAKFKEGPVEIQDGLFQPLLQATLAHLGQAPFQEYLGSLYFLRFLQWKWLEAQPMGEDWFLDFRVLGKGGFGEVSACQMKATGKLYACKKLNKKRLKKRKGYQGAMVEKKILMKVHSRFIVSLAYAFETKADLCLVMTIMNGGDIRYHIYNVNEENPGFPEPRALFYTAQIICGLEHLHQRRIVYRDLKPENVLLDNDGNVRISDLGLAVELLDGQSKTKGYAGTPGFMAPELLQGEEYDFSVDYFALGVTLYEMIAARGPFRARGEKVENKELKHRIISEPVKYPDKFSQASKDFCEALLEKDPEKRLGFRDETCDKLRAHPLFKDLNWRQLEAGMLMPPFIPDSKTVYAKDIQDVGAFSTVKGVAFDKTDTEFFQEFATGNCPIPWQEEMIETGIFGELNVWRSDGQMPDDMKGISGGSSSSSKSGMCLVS
In words: Inhibition of recombinant human GST-tagged GRK1 expressed in baculovirus infected fall armyworm Sf9 cells after 60 mins by LanthaScreen eu kinase binding assay.

In a further data set the target is T5, Rhodopsin kinase GRK7 (Homo sapiens, UniProt Q8WTQ7).
T5 sequence (Q8WTQ7 whole entry): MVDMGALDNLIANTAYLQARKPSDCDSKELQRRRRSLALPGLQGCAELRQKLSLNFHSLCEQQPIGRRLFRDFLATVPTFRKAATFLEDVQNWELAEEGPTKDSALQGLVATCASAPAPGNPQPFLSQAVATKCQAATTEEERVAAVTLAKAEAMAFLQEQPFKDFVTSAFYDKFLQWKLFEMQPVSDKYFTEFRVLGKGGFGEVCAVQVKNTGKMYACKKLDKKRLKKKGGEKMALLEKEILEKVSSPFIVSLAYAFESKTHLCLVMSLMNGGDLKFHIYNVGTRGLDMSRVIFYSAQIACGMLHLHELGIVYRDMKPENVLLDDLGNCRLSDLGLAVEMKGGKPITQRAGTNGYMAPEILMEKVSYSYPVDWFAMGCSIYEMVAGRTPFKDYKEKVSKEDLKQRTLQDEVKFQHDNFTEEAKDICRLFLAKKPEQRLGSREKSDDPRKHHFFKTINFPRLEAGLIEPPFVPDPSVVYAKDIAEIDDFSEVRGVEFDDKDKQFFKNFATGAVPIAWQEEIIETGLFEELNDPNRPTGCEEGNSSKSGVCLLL
In words: Inhibition of recombinant human full length GST-tagged GRK7 expressed in baculovirus using ulight topo2alpha as substrate preincubated for 60 mins followed by substrate addition measured after 10 mins by Lance TR-FRET assay.

Rho-associated protein kinase 2, sequence (O75116 whole entry, the tested form may be a part): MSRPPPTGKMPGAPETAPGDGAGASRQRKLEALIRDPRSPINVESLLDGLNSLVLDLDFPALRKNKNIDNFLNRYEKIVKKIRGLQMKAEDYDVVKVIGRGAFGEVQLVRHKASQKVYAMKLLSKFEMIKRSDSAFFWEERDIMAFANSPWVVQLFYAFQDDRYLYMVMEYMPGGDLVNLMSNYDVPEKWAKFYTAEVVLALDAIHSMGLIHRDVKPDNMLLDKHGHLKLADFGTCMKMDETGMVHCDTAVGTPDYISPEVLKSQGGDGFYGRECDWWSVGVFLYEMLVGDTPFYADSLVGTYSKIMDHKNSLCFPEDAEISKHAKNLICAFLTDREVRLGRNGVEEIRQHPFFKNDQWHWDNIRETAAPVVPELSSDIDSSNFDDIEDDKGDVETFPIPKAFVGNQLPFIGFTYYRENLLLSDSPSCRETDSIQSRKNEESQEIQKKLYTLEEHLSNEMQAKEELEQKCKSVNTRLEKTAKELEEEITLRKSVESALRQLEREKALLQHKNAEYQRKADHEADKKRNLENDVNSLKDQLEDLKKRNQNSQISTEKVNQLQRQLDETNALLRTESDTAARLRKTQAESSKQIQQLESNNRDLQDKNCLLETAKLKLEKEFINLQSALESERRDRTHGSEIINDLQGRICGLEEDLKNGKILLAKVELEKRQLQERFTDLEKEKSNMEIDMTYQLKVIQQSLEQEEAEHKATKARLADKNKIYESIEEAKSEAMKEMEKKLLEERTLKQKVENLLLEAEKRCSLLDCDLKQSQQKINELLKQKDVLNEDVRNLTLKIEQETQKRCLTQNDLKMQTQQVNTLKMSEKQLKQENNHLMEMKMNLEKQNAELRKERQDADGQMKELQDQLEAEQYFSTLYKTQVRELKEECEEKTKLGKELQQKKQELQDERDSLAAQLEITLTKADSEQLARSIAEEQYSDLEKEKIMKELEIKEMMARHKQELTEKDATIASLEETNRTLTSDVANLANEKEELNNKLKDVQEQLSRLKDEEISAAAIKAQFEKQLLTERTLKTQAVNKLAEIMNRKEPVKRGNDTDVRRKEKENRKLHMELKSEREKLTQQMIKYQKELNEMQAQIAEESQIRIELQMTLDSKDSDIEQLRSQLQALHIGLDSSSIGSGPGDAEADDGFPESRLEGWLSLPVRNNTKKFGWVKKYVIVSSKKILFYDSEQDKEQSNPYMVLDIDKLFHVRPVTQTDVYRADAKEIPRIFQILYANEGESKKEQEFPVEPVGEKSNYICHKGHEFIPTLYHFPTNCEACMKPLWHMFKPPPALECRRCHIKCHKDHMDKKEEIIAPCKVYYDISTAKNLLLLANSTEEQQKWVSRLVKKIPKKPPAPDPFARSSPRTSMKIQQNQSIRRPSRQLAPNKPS
CYP3A4, sequence (P08684 whole entry): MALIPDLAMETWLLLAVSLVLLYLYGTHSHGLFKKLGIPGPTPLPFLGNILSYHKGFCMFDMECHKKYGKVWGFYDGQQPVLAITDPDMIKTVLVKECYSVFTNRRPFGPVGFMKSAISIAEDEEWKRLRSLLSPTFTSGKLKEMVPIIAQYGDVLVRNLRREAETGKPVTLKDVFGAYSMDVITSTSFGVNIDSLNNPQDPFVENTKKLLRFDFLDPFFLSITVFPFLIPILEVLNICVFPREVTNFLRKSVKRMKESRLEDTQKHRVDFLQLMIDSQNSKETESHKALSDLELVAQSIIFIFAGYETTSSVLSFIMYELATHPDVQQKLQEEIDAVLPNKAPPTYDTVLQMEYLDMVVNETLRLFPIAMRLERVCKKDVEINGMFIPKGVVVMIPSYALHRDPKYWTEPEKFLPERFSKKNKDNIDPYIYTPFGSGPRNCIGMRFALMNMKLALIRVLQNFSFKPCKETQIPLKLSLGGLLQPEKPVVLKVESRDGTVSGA
T2 sequence (Q12809 whole entry): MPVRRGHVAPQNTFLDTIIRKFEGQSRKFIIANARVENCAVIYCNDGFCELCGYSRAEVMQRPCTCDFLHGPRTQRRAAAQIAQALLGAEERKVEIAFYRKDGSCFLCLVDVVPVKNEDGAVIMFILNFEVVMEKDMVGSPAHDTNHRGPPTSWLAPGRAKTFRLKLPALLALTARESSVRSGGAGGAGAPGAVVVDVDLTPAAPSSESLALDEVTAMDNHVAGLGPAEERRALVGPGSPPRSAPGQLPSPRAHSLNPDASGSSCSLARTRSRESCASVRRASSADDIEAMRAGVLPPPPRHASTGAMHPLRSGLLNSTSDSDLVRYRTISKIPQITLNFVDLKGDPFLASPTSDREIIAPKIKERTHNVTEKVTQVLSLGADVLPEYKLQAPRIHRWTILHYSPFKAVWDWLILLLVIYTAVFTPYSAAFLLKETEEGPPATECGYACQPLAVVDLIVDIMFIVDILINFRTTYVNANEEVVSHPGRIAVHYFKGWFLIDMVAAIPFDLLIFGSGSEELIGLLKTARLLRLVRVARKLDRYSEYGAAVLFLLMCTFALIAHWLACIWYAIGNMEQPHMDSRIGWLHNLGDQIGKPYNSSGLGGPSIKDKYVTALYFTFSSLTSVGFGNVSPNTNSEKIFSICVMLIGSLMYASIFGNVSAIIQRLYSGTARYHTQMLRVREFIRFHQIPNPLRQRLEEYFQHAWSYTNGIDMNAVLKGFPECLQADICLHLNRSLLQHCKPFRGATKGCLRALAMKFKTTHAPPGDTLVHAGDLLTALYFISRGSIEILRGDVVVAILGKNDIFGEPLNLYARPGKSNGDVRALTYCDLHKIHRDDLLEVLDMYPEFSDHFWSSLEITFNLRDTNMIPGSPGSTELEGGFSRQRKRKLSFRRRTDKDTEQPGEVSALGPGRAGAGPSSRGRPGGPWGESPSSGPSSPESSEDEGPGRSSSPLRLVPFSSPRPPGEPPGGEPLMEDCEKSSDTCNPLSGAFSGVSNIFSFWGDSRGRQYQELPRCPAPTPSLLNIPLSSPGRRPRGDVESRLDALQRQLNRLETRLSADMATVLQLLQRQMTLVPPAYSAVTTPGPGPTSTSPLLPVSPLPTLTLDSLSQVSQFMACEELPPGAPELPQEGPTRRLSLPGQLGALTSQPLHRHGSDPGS
G protein-coupled receptor kinase 5, sequence (P34947 whole entry): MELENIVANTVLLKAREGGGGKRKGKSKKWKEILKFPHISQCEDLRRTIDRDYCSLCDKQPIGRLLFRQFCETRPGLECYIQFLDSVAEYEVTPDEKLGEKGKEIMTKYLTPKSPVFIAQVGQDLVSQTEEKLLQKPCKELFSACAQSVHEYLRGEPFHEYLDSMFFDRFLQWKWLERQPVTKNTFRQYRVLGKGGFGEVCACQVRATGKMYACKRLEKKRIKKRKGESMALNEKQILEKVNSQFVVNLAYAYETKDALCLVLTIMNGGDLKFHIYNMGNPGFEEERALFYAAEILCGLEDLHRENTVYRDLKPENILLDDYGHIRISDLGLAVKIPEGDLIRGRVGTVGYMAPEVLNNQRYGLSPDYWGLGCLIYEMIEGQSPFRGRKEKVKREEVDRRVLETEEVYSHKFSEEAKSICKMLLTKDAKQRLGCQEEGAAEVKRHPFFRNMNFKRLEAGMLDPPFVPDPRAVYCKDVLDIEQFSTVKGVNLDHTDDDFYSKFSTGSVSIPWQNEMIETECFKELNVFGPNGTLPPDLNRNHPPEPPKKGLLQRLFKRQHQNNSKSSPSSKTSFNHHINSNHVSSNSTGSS
G protein-coupled receptor kinase 6, sequence (P43250 whole entry): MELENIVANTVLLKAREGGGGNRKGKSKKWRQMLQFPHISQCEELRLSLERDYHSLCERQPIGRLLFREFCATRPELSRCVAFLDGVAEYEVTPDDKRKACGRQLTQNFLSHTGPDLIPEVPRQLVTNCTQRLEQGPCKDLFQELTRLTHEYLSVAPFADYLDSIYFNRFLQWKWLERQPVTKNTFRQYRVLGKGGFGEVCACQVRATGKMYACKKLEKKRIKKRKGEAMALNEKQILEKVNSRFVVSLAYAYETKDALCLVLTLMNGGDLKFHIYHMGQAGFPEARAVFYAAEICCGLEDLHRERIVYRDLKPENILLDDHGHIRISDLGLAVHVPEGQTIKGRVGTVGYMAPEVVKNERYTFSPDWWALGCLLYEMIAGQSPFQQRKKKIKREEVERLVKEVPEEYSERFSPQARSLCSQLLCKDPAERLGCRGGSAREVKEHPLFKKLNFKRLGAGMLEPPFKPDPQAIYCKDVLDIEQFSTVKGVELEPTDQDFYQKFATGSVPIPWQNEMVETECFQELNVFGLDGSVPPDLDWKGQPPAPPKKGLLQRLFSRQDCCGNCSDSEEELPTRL

The IC50 is the midpoint of a concentration-inhibition curve. One may read the inhibition as the percentage by which the read-out fell short of the control. A word on the EC50: it is the concentration giving half of the maximal effect. As to `Cn1c(CNc2cccc(C(=O)NCc3ccc(C(F)(F)F)cc3)c2)nnc1-c1ccncc1`, the IC50 was above 10 µM in data set [1] and 620 nM in data set [2]. In addition, the inhibition at 10 µM against CYP3A4 was found to be 36%. For the same molecule, the EC50 in data set [3] was found to be 930 µM.

Regarding `Cn1c(CNc2cccc(C(=O)NCc3cccc(C(F)(F)F)c3)c2)nnc1-c1ccncc1`, the IC50 in data set [1] is above 10 µM; in data set [2], 530 nM. Moreover, the inhibition at 10 µM on CYP3A4 is 44%. For the same molecule, in data set [3], the EC50 came to 220 µM.

As to `CCCn1c(CNc2cccc(C(=O)NCc3ccccc3)c2)nnc1-c1ccncc1`, the half-maximal inhibitory concentration (IC50) in data set [1] worked out at 5.7 µM; in [2] it was 110 nM. At CYP3A4, this molecule came in with an inhibition at 10 µM of 67%. Further, in data set [3], the EC50 was 26 µM.

`Cn1c(CNc2cccc(C(=O)NCc3ccccc3C(F)(F)F)c2)nnc1-c1ccncc1`: the IC50 in data set [4] is 2300 nM; in data set [1], 8.1 µM; in data set [2] it was 1400 nM; in data set [5] it was above 30 µM; in data set [8] it was above 1000 nM; in [9], 5.4 nM. The IC50 stood at 3.1 µM on Rhodopsin kinase GRK1 and 25 µM on Rhodopsin kinase GRK7. For the same molecule, on hERG (KCNH2) [6], the inhibition at 1 h, 1 µM came to 9%. The molecule further yielded an inhibition at 1 h, 10 µM on hERG (KCNH2) [7] of 31%. 10 µM produced 44% inhibition at CYP3A4.

With `Cn1c(CNc2cccc(C(=O)NCc3ccccc3)c2)nnc1-c1ccncc1`, the IC50 was above 10 µM in [1] and 550 nM in data set [2]. Moreover, at CYP3A4, 10 µM produced 26% inhibition. In data set [3], the EC50 came to 1900 µM.
